Test results reported in patent US7022846B2, “Metabolites of prinomastat and their synthesis” (Agouron Pharmaceuticals, Inc., priority 2002, dated 2006).

What was measured:
[1] = Metabolic composition of human plasma after single oral dose of prinomastat (LC-MS/MS); assay type: in vivo; conditions: single 100 mg oral dose of prinomastat
Description: Five healthy male volunteers received a 100 mg oral dose of prinomastat tablets in a phase I, double-blind, ascending single dose study. Blood samples were drawn at pre-selected time points, and the plasma was separated by centrifugation and stored at −20° C.
The human plasma samples at 1.5, 4, 8 and 12 hours pooled from five male volunteers were selected for the analysis of metabolites by liquid chromatography tandem mass spectroscopy (LC-MS/MS). Samples were treated with three volumes of an AcN:MeOH mixture (2:1) to precipitate plasma proteins. Following centrifugation, protein pellets were separated and washed twice with two volumes of the same AcN:MeOH mixture. The combined supernatant was evaporated to dryness under vacuum using a SpeedVac™ (Savant Instrument, Holbrook, N.Y.), and the dried residue was reconstituted in 0.1% formic acid-acetonitrile (90:10), and analyzed by LC-MS/MS.
Two LC-MS/MS systems were used to analyze the plasma samples. […]
The relative peak heights of prinomastat and its metabolites in the LC-MS reconstructed ion chromatograms (RIC) were used to estimate the relative abundance of each component, which was expressed as percent of total prinomastat related compounds. […]
Human plasma pooled from five male volunteers was analyzed for metabolites at 1.5 hr, 4, 8 and 12 hours. […]

[2] = target: T1, hGELA (Homo sapiens, UniProt P08253); test: Ki for MMP inhibition, hGELA; assay type: biochemical
T1 sequence (P08253 110-660): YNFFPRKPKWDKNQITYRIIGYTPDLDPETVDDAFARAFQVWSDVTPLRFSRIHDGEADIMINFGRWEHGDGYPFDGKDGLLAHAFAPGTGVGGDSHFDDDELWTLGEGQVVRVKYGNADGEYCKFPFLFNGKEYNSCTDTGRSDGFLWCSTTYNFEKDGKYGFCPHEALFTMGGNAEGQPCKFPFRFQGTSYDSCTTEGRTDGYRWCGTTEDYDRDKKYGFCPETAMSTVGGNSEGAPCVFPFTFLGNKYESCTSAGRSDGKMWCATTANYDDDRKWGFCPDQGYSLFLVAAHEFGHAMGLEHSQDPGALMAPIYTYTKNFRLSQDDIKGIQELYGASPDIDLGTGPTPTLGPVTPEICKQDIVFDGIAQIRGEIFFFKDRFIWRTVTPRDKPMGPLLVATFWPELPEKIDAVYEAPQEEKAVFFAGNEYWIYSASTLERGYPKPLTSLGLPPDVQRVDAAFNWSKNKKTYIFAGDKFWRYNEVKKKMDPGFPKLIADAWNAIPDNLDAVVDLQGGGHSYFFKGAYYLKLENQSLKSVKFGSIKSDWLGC
Source text: (§1) The present invention is further directed to methods of inhibiting metalloproteinase activity, for example in mammalian tissue, by administering metabolites of prinomastat, such as a compound of the formula 11 or 22, or a pharmaceutically acceptable prodrug, salt or solvate thereof. The activity of the inventive compounds as inhibitors of metalloproteinase activity, such as the activity of MMPs (including stromelysins, collagenases, gelatinases, and/or matrilysin) and/or TNF-[…] convertase, may be measured by any of the methods available to those skilled in the art, including in vivo and/or in vitro assays. Examples of suitable assays fro activity measurements include those described in Anal. Biochem., 147, 437 (1995), Anal. Biochem., 180, 110 (1989), FEBS, 96, 263 (1992) and European Patent Application No. 0 606 046.

[3] = target: T2, hMATR (Homo sapiens, UniProt P09237); test: Ki for MMP inhibition, hMATR; assay type: biochemical
T2 sequence (P09237 95-267): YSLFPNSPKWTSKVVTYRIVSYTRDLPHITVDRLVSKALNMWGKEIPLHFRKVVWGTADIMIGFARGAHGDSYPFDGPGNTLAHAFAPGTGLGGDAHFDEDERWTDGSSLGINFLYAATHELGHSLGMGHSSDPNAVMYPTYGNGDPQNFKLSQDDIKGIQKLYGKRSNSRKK
Source text: as §1

[4] = target: hSLN (Homo sapiens, UniProt P08254); test: Ki for MMP inhibition, hSLN; assay type: biochemical
Source text: as §1

[5] = target: T3, hCOL1 (Homo sapiens, UniProt P03956); test: Ki for MMP inhibition, hCOL1; assay type: biochemical
T3 sequence (P03956 100-469): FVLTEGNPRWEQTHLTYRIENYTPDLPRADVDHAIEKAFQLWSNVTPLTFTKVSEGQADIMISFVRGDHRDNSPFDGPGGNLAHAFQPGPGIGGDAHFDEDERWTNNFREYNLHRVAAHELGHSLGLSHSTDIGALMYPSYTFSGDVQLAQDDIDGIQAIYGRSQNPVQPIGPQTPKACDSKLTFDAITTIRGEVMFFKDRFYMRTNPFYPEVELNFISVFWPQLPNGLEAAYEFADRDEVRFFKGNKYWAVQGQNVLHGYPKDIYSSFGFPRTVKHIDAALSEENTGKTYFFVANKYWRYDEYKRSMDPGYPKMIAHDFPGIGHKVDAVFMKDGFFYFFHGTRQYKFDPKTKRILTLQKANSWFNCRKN
Source text: as §1

[6] = target: hCOL3 (Homo sapiens, UniProt P45452); test: Ki for MMP inhibition, hCOL3; assay type: biochemical
Source text: as §1

hSLN, sequence (P08254 100-477): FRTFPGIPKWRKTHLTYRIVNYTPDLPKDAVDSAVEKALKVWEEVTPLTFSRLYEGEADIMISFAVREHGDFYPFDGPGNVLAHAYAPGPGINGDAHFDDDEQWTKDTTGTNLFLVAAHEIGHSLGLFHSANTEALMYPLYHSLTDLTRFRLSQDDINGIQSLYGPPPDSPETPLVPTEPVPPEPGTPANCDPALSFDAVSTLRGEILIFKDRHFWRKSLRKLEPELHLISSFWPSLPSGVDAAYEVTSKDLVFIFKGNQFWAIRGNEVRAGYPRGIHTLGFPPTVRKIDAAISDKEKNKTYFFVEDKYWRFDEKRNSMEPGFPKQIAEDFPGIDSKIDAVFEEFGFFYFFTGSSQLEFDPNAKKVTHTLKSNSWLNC

SMILES | relative abundance among circulating drug-related compounds in human plasma ([1]; early time points) | Ki [2] [nM] | Ki [3] [nM] | Ki [4] [nM] | Ki [5] [nM] | share of the total drug-related substance in human plasma ([1]; later time points) [%] | Ki [6] [nM]
CC1(C)SCCN(S(=O)(=O)c2ccc(Oc3ccncc3)cc2)[C@H]1C(=O)NO [parent drug, (3S)-N-hydroxy-4-(4-(pyrid-4-yloxy)benzenesulfonyl)-2,2-dimethyl-tetrahydro-2H-1,4-thiazine-3-carboxamide, reference compound] | major circulating compound | – | – | – | – | – | –
CC1(C)SCCN(S(=O)(=O)c2ccc(Oc3cc[n+]([O-])cc3)cc2)[C@H]1C(=O)NO [M6, (3S)-N-hydroxy-4-(4-((1-oxy-pyrid-4-yl)oxy)benzenesulfonyl)-2,2-dimethyl-tetrahydro-2H-1,4-thiazine-3-carboxamide] | – | 6.6 | 1140 | 5.1 | 396 | ≤ 50 | 4
